Assay results: the supplement of paper PMC7695840
pIC50: −log10 of the molar value. “And” between values parts separate entries of the source, which are not always exact repeats. Equal entries are not always repeated.

Key:
[1] = test system: Staphylococcus aureus MW2 delta-mecA (mecA-); experiment: IC50 (growth, competition assay); details: cefoxitin: subinhibitory
Procedure, shortened: (§1)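 Pre-induced, 1:1-mixed fluorescent S. aureus MW2 mecA+ and ΔmecA strains were grown 20 h at 37 °C, 90% humidity, unshaken, in LB with a daily-set subinhibitory cefoxitin dose, in 1536-well plates. Compounds were given on five- or nine-point 2-fold gradients, in two dye-swapped replicates. DsRed (540/590) and GFP (485/520) were scaled per plate between single-strain control medians, with No Treatment then set to 0.5. Per-strain IC50 was the dose halving the No Treatment signal, or the maximal signal.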

[2] = test system: Staphylococcus aureus MW2 (mecA+); experiment: IC50 (growth, competition assay); details: cefoxitin: subinhibitory
Procedure, shortened: as §1

Row | SMILES | pIC50 ([1]; fluorescent label: DsRed) | pIC50 ([1]; fluorescent label: GFP) | pIC50 ([2]; fluorescent label: DsRed) | pIC50 ([2]; fluorescent label: GFP)
1 | C#CCCCCCCCCCCCC(O)CC(O)CO.C=CCCCCCCCCCCCC(O)CC(O)CO (stereo unspecified) | > 5.01 | > 5.01 | 4.78 | 4.58
2 | CC(C)(C)c1nc(-c2cccc(NS(=O)(=O)c3c(F)cccc3F)c2F)c(-c2ccnc(N)n2)s1 | > 5.01 | > 5.01 | 4.46 | 4.10
3 | CC(C)N(CCC(=O)c1ccc2ccccc2c1)Cc1ccccc1 | > 5.01 | > 5.01 | > 5.01 and 4.77 | 4.85 and 4.65
4 | CC1(C)C(=O)N(CCN2CCC(C(=O)c3ccc(F)cc3)CC2)c2ccccc21 | 4.27 | 4.79 | 4.41 | 4.01
5 | CCN(CC)CCN(Cc1ccc(-c2ccc(C(F)(F)F)cc2)cc1)C(=O)Cn1c(SCc2ccc(F)cc2)nc(=O)c2c1CCC2 | > 5.01 | > 5.01 | > 5.01 | 4.99
6 | CCN(CC)CCOc1ccc(Nc2ncc3cc(-c4c(Cl)cccc4Cl)c(=O)n(C)c3n2)cc1 | 4.51 | 4.44 | 4.07 | 3.98
7 | CCc1cc(-c2n[nH]c(C)c2-c2ccc3c(c2)OCCO3)c(O)cc1O | 4.81 | > 5.01 | 4.08 | 3.99
8 | CCc1ccc(/C=C2/SC(=S)NC2=O)cc1 | > 5.01 | > 5.01 | > 5.01 | > 5.01
9 | CCn1cnc2c(Nc3cccc(Cl)c3)nc(N[C@@H]3CCCC[C@@H]3N)nc21 | 4.82 | 4.77 | 4.18 | 4.11
10 | CNCc1ccc(C)c(NC(=O)c2ccc(Nc3nc(-c4ccccc4)c4ccccc4n3)cc2)c1 | > 5.01 | > 5.01 | 4.80 | 4.84
11 | CNc1nc(-c2ccc3c(N)n[nH]c3c2)cc(N2C[C@@H](C(=O)NC3CCCCC3)CC[C@H]2C)n1 | 4.29 | 4.58 | 3.95 | 3.96
12 | COC(=O)C1=C(C)NC(C)=C(C(=O)OC)C1c1cccc(NC(=O)NCCCN2CCC(c3cccc(OC)c3)CC2)c1 | 4.74 | 4.87 | 4.34 | 4.26
13 | COc1cc2c(Oc3ccc(NC(=O)C4(C(=O)Nc5ccc(F)cc5)CC4)cc3F)ccnc2cc1OCCCN1CCOCC1 | 4.88 | 4.92 | 4.38 | 4.24
14 | COc1ccc(CCN(C)CCCOc2ccc(S(=O)(=O)c3c(C(C)C)n(C)c4ccccc34)cc2)cc1OC | > 5.01 | > 5.01 | 4.83 | 4.83
15 | COc1ccc(NC(=O)c2ccc(-c3ccc(-c4noc(C)n4)cc3C)cc2)cc1N1CCN(C)CC1 | > 5.01 | 4.91 | 4.52 | 4.35
16 | COc1ccc(NS(=O)(=O)c2sc3ccc(Cl)cc3c2C)cc1N1CCNCC1 | 4.64 | 4.78 | 3.99 | 3.97
17 | COc1ccc2c(c1)CCC1C2CCC2(C)C(NCCCCCCN3C(=O)C=CC3=O)CCC12 (stereo unspecified) | 4.33 | 4.35 | < 3.82 | < 3.82

Row | SMILES | pIC50 ([1]; fluorescent label: DsRed) | pIC50 ([1]; fluorescent label: GFP) | pIC50 ([2]; fluorescent label: DsRed) | pIC50 ([2]; fluorescent label: GFP)
18 | COc1ccnc2[nH]cc(C(=O)C(=O)N3CCN(C(=O)c4ccccc4)C[C@H]3C)c12 | < 3.82 | < 3.82 | < 3.82 | < 3.82
19 | COc1ncc(-c2ccc3nccc(-c4ccnnc4)c3c2)cc1NS(=O)(=O)c1ccc(F)cc1F | > 5.01 | > 5.01 | > 5.01 | > 5.01
20 | C[C@@H](Oc1cc(-c2cnn(C3CCNCC3)c2)cnc1N)c1c(Cl)ccc(F)c1Cl | 4.68 | 4.77 | 3.99 | 3.96
21 | C[C@@H]1CCO[C@H]2Cn3cc(C(=O)NCc4ccc(F)cc4F)c(=O)c(O)c3C(=O)N12 | 3.96 | 4.23 | < 3.82 | < 3.82
22 | C[C@H](Cc1ccc(O)c(O)c1)[C@@H](C)Cc1ccc(O)c(O)c1 | > 5.01 | > 5.01 | 4.48 | 4.24
23 | Cc1cc(F)c(Nc2ncnc3cc(OCc4ccccc4)ccc23)cc1O | 3.86 | < 3.82 | < 3.82 | 3.86
24 | Cc1ccc(C(=O)N(CCCN)[C@@H](c2oc3cc(Cl)ccc3c(=O)c2Cc2ccccc2)C(C)C)cc1 | 5.23 | 5.10 | 4.51 | 4.51
25 | Cc1ccc(C(=O)Nc2ccc(CN3CCN(C)CC3)c(C(F)(F)F)c2)cc1C#Cc1cnc2cccnn12 | 5.08 | 5.34 | 4.66 | 4.56
26 | Cc1ccc(S(=O)(=O)c2ccc([N+](=O)[O-])o2)cc1 | > 5.01 | > 5.01 | > 5.01 | > 5.01
27 | Cc1ccc(Sc2ccccc2N2CCNCC2)c(C)c1 | > 5.01 | 4.84 | 4.36 | 4.27
28 | NC1CCN(c2c(F)cc3c(=O)c(C(=O)O)cn(C4CC4)c3c2Cl)C1 (stereo unspecified) | > 5.01 | > 5.01 | > 5.01 | > 5.01
29 | NCC(=O)Nc1ccc(-n2nc(C(F)(F)F)cc2-c2ccc3c(ccc4ccccc43)c2)cc1 | 5.05 and 4.84 | 5.46 and 4.83 | 4.67 and 4.68 | 4.53 and 4.83
30 | NC[C@@H]1O[C@H](C23CC4CC(CC(C4)C2)C3)Cc2c1ccc(O)c2O | 4.46 | 4.26 | 4.46 | 4.25
31 | O=C(Nc1ccccc1)Nc1ccc(-c2ccc(C(=O)[C@@H]3CCC[C@H]3C(=O)O)cc2)cc1 | > 5.01 | > 5.01 | 4.64 | 4.38
32 | O=C(Nc1ncc(SCCN2CCCC2)s1)[C@]1(c2ccc(S(=O)(=O)C3CC3)cc2)C[C@H]1C1CCCCC1 | 4.13 | 4.46 | 3.95 | < 3.82
33 | O=C(Nc1ncc([N+](=O)[O-])s1)c1ccc([N+](=O)[O-])c(Cl)c1 | 4.88 | 4.82 | > 5.01 | > 5.01
34 | O=C1C(Cl)=C(NCCN2CCOCC2)C(=O)c2ncccc21 | 4.54 | > 5.01 | 4.48 | 4.04
